Laboratory results as given in US20240101551A1, “CRYSTAL FORM AND SALT FORM OF BROMINE DOMAIN PROTEIN INHIBITOR AND PREPARATION METHOD THEREFOR” (CHIA TAI TIANQING PHARMACEUTICAL GROUP CO., LTD., priority 2020, published 2024).

Assay: Study on stability under influencing factors (high temperature, high humidity, light) of the crystal forms
Type: physicochemical
Protocol: In order to evaluate the solid stability of the crystal forms of the present application, the stability of each of the crystal form I, the crystal form A, the crystal form D, the crystal form E and the crystal form F under influencing factors (high temperature, high humidity and light) was investigated. Each of the crystal forms was stored under the high temperature condition (60±2° C., open (weighing bottle)), and the high humidity condition (room temperature, 92.5%±5% RH, open (weighing bottle) and packaged) for 5 days, 10 days and 30 days, and under the ICH light condition (5500 Lux, 0.9 w/m^2, closed (weighing bottle) and packaged) for 5 days and 10 days. The inner packaging material of the packaged sample was a medical low-density polyethylene bag, and the outer packaging material is a medical polyester/aluminum/polyethylene composite bag. The samples after the storage were characterized by properties, purity (HPLC), crystal form (XRD) and water content to detect the changes in the crystal form and purity. The results are shown in Tables 8-12 (“^#” indicates the ICH condition).

[1] = 92.5% RH, room temperature, open, 10 days
[2] = 92.5% RH, room temperature, open, 30 days
[3] = Light (ICH, 5500 Lux), closed, 10 days

With Cn1cc(-c2nc(N=S(C)(C)=O)ccc2Oc2ccc(F)cc2F)c2cc[nH]c2c1=O [crystal form I] the Impurity content (60° C., open, 5 days) was 1.23%, the Crystal form change (60° C., open, 10 days) was “Unchanged” and the Impurity content (60° C., open, 10 days) was 1.21%. The Water content (60° C., open, 10 days) was 0.19%, the Crystal form change (60° C., open, 30 days) was “Unchanged” and the Impurity content (60° C., open, 30 days) was 1.31%. For the same compound, the Water content (60° C., open, 30 days) was 0.15%, the Crystal form change (92.5% RH, packaged, 30 days) was “Unchanged” and the Impurity content (92.5% RH, packaged, 30 days) was 1.32%. The Water content (92.5% RH, packaged, 30 days) was 0.23%, the Impurity content (92.5% RH, room temperature, open, 5 days) was 1.23% and the Crystal form change [1] was “Unchanged”. The Impurity content [1] was 1.23%, the Water content [1] was 0.36% and the Crystal form change [2] was “Unchanged”. For the same compound, the Impurity content [2] was 1.30%, the Water content [2] was 0.31% and the Crystal form change (Light (ICH), packaged, 10 days) was “Unchanged”. It also gave an Impurity content (Light (ICH), packaged, 10 days) of 1.21%, a Water content (Light (ICH), packaged, 10 days) of 0.30% and an Impurity content (Light (ICH, 5500 Lux), closed, 5 days) of 1.18%. The Crystal form change [3] was “Unchanged”, the Impurity content [3] was 1.21% and the Water content [3] was 0.34%. For the same compound, the Impurity content (starting crystal form) was 1.20% and the Water content (starting crystal form) was 0.39%.
